Assay results from ChEMBL document CHEMBL5715954, “Silencing c-Myc translation as a therapeutic strategy through targeting PI3Kδ and CK1ε in hematological malignancies” (Blood, 2017).

How the values were obtained:
Set-up in all cases: scale not given: the % may be the effect or the level left
[1] = biological target: CDK1/Cyclin A (Homo sapiens) (UniProt P06493+P20248); assay: Inhibition of human CDK1/cyclin A assessed as enzyme activity at 1 uM using RB Protein as substrate preincubated for 20 mins followed by [gamma-33P]-ATP addition and measured after 120 mins by radiometric Hot-SpotSM Kinase assay relative to control; assay type: protein-complex assay
[2] = biological target: Mitogen-activated protein kinase 11 (Homo sapiens) (UniProt Q15759); assay: Inhibition of human P38b assessed as enzyme activity at 1 uM using myelin basic protein as substrate preincubated for 20 mins followed by [gamma-33P]-ATP addition and measured after 120 mins by radiometric Hot-SpotSM Kinase assay relative to control
[3] = biological target: Focal adhesion kinase 1 (Homo sapiens) (UniProt Q05397); assay: Inhibition of human FAK assessed as enzyme activity at 1 uM using poly[Glu:Tyr] (4:1) as substrate preincubated for 20 mins followed by [gamma-33P]-ATP addition and measured after 120 mins by radiometric Hot-SpotSM Kinase assay relative to control
[4] = biological target: Dual specificity protein kinase CLK1 (Homo sapiens) (UniProt P49759); assay: Inhibition of human CLK1 assessed as enzyme activity at 1 uM using myelin basic protein as substrate preincubated for 20 mins followed by [gamma-33P]-ATP addition and measured after 120 mins by radiometric Hot-SpotSM Kinase assay relative to control
[5] = biological target: Death-associated protein kinase 3 (Homo sapiens) (UniProt O43293); assay: Inhibition of human ZIPK assessed as enzyme activity at 1 uM using KKLNRTLSFAEPG as substrate preincubated for 20 mins followed by [gamma-33P]-ATP addition and measured after 120 mins by radiometric Hot-SpotSM Kinase assay relative to control
[6] = biological target: LIM domain kinase 1 (Homo sapiens) (UniProt P53667); assay: Inhibition of human LIMK1 assessed as enzyme activity at 1 uM using cofilin 1 as substrate preincubated for 20 mins followed by [gamma-33P]-ATP addition and measured after 120 mins by radiometric Hot-SpotSM Kinase assay relative to control
[7] = biological target: Fibroblast growth factor receptor 1 (Homo sapiens) (UniProt P11362); assay: Inhibition of human FGFR1 assessed as enzyme activity at 1 uM using poly[Glu:Tyr] (4:1) as substrate preincubated for 20 mins followed by [gamma-33P]-ATP addition and measured after 120 mins by radiometric Hot-SpotSM Kinase assay relative to control
[8] = biological target: Vascular endothelial growth factor receptor 3 (Homo sapiens) (UniProt P35916); assay: Inhibition of human FLT4 assessed as enzyme activity at 1 uM using poly[Glu:Tyr] (4:1) as substrate preincubated for 20 mins followed by [gamma-33P]-ATP addition and measured after 120 mins by radiometric Hot-SpotSM Kinase assay relative to control
[9] = biological target: T1, cGMP-dependent protein kinase 1 (Homo sapiens) (UniProt Q13976); assay: Inhibition of human PKG1b assessed as enzyme activity at 1 uM using LRRASLG as substrate preincubated for 20 mins followed by [gamma-33P]-ATP addition and measured after 120 mins by radiometric Hot-SpotSM Kinase assay relative to control
T1 sequence (whole entry): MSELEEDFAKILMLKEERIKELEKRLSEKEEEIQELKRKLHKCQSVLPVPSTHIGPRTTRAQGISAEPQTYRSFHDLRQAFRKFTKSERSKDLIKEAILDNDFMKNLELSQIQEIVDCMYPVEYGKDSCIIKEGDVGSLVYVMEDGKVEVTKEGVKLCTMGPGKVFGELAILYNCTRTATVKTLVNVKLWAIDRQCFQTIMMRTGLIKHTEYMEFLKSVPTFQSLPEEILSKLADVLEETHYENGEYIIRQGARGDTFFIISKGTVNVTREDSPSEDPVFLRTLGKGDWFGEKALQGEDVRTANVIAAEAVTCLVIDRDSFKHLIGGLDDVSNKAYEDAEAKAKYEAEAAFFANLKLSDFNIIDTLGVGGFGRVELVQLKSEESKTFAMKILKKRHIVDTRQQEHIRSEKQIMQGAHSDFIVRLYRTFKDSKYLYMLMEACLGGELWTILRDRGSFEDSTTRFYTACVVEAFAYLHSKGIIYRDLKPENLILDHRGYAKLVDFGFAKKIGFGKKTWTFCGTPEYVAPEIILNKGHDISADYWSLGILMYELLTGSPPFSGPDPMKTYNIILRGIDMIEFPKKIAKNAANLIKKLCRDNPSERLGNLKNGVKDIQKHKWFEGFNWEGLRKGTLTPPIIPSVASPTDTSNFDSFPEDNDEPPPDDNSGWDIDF

[10] = biological target: T2, Serine/threonine-protein kinase DCLK1 (Homo sapiens) (UniProt O15075); assay: Inhibition of human DCAMKL1 assessed as enzyme activity at 1 uM using KKLNRTLSFAEPG as substrate preincubated for 20 mins followed by [gamma-33P]-ATP addition and measured after 120 mins by radiometric Hot-SpotSM Kinase assay relative to control
T2 sequence (whole entry): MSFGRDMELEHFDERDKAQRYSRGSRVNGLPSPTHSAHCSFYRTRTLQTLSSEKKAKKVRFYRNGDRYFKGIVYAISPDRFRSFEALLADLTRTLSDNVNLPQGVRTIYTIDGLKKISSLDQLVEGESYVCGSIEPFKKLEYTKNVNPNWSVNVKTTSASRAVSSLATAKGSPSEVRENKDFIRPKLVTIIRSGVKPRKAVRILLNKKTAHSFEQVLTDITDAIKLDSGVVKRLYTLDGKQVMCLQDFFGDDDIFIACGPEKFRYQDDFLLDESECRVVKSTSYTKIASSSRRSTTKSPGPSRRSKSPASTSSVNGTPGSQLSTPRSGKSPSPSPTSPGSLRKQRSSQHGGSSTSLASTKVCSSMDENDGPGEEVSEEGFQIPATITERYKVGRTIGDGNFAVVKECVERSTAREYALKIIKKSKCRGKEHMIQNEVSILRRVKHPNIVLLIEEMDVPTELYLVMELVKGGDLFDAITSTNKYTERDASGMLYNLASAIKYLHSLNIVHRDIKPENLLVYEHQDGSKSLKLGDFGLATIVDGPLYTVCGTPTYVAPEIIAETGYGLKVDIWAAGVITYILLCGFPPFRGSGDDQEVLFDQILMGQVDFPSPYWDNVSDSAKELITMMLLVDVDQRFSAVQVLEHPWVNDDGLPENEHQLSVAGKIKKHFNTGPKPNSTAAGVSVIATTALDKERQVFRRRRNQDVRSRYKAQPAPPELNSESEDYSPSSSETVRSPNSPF

Sequence of Fibroblast growth factor receptor 1 (Homo sapiens) (P11362 22-822 limits assumed): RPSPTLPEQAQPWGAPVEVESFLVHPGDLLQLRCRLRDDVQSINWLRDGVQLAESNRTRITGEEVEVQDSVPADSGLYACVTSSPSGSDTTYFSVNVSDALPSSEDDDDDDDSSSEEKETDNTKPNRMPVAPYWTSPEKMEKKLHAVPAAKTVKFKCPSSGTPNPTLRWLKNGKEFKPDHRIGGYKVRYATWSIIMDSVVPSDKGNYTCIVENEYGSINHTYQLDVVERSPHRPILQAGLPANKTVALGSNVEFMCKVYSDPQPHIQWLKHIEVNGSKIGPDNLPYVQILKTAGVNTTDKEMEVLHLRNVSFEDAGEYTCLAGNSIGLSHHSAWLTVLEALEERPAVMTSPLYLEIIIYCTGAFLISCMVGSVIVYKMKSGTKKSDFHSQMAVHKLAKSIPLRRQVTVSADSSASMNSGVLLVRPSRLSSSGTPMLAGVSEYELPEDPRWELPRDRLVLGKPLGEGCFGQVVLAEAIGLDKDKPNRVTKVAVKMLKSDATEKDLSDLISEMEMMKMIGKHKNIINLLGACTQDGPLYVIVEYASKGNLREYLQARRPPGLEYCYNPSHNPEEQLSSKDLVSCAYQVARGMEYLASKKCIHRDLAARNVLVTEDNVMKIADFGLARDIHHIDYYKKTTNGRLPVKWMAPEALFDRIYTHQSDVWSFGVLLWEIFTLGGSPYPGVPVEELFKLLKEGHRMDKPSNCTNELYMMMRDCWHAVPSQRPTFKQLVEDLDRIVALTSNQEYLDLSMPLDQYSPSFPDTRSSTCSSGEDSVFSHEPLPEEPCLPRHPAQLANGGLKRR
Sequence of Mitogen-activated protein kinase 11 (Homo sapiens) (Q15759 whole entry): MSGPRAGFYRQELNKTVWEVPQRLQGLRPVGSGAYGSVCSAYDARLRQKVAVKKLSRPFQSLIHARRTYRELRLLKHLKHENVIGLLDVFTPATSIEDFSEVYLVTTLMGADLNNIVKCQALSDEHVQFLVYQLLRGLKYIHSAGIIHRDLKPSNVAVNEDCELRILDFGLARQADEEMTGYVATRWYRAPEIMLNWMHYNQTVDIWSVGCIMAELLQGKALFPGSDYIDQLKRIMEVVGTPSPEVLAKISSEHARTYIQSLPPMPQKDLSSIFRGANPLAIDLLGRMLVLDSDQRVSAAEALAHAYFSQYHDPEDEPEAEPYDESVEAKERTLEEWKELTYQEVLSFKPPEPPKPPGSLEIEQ
Sequence of Dual specificity protein kinase CLK1 (Homo sapiens) (P49759 whole entry, looked up): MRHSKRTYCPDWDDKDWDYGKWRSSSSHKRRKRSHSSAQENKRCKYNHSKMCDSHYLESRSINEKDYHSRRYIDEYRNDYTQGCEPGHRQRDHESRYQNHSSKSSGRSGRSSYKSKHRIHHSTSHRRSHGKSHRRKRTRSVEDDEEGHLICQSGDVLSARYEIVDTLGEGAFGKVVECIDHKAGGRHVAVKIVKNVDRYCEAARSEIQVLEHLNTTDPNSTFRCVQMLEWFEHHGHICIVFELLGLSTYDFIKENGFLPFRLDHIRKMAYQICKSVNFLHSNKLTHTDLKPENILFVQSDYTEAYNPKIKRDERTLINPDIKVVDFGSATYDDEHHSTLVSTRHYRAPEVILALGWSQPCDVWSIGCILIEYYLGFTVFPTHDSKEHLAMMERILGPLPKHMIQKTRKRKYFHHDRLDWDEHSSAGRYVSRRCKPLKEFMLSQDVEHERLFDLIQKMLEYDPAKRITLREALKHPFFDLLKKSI
Sequence of LIM domain kinase 1 (Homo sapiens) (P53667 whole entry, looked up, the tested form may be a part): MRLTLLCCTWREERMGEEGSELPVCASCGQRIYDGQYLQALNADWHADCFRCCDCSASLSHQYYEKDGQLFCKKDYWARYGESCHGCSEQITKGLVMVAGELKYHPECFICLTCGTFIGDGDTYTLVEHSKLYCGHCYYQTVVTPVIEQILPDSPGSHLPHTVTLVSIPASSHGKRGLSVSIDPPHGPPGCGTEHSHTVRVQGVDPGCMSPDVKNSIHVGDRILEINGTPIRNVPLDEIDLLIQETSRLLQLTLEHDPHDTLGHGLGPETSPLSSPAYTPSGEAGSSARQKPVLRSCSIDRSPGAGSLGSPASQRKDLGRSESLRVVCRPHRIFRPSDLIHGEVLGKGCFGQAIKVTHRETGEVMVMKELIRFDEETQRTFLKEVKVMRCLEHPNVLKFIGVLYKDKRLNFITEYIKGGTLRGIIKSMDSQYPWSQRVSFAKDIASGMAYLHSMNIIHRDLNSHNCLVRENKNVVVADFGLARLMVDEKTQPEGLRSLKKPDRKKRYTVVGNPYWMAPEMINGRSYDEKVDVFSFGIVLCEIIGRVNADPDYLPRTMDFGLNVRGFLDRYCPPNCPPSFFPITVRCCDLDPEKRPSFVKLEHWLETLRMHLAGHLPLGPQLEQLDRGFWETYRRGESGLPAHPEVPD
Sequence of Vascular endothelial growth factor receptor 3 (Homo sapiens) (P35916 whole entry): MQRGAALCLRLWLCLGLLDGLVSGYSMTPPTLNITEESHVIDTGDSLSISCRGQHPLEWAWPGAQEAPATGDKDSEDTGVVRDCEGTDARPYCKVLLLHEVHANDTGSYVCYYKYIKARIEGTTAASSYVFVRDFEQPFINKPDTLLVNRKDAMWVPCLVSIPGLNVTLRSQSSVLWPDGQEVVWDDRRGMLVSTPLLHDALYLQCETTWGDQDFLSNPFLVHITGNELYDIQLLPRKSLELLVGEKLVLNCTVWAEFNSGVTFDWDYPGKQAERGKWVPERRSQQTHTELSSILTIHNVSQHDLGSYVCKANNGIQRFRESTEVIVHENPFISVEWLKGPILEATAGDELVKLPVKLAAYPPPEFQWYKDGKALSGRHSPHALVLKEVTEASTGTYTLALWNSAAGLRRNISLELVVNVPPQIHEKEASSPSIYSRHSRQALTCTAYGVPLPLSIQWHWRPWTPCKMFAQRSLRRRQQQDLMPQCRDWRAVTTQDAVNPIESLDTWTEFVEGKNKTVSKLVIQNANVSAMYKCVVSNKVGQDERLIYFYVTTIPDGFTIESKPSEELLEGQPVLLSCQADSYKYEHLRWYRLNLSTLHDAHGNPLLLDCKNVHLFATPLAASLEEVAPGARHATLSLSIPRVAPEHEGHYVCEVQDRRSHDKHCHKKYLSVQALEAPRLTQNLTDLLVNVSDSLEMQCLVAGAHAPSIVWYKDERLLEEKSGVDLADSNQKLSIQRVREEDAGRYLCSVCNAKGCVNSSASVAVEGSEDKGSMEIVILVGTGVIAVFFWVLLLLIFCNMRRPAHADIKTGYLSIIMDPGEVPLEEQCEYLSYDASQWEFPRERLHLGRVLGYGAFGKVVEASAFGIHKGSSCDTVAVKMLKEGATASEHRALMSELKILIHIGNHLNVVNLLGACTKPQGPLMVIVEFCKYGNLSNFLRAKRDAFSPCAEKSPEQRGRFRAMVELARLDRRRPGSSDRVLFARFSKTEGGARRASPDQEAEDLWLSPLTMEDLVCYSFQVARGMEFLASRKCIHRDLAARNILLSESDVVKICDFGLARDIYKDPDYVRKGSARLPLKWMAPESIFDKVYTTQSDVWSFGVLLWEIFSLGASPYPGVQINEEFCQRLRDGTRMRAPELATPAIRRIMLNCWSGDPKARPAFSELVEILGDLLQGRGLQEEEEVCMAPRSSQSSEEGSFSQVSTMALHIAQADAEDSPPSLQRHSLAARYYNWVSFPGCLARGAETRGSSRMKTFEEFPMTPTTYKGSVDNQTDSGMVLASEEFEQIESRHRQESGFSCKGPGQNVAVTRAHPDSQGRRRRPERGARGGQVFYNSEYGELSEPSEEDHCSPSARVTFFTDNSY
Sequence of CDK1/Cyclin A (Homo sapiens) (P06493 whole entry, looked up): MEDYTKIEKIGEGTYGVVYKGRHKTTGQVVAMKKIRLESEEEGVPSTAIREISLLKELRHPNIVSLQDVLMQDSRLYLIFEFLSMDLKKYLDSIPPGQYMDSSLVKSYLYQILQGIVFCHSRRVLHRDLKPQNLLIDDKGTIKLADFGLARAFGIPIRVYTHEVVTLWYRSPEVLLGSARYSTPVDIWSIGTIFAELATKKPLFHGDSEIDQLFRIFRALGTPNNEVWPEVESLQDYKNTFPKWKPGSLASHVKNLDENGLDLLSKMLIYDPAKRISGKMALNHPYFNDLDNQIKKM
Sequence of CDK1/Cyclin A (Homo sapiens) (P20248 whole entry, looked up): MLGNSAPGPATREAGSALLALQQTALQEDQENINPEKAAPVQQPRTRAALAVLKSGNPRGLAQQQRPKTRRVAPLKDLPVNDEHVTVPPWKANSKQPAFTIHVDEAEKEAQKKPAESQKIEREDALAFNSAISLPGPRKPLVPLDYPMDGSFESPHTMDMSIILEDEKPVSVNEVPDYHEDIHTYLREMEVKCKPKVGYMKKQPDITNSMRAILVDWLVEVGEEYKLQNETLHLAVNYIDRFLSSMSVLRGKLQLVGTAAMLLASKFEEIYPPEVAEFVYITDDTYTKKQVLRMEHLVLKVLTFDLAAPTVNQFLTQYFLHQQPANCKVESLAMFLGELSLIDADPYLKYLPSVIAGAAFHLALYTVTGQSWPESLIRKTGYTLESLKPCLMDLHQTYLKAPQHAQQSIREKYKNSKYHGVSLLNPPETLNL
Sequence of Death-associated protein kinase 3 (Homo sapiens) (O43293 whole entry, looked up, the tested form may be a part): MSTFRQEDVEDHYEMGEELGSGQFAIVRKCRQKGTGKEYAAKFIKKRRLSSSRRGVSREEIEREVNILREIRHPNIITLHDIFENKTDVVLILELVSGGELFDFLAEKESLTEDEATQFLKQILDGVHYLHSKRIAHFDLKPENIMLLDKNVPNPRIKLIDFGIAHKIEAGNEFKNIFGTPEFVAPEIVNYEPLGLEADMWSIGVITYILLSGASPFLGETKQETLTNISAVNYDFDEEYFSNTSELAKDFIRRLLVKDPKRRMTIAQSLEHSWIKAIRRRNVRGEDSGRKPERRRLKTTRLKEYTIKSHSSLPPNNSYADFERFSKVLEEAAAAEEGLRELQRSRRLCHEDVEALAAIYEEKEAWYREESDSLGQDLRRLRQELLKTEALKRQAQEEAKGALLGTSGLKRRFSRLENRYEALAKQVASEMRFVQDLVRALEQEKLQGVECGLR

Structure (SMILES)	Activity [1] [%]	Activity [2] [%]	Activity [3] [%]	Activity [4] [%]	Activity [5] [%]	Activity [6] [%]	Activity [7] [%]	Activity [8] [%]	Activity [9] [%]	Activity [10] [%]
C[C@H](Nc1ncnc2nc[nH]c12)c1cc2cccc(Cl)c2c(=O)n1-c1ccccc1	95.7	92.6	98.4	106	107	90	95.7	101	95.9	89.4
CC[C@H](Nc1ncnc2[nH]cnc12)c1nc2cccc(F)c2c(=O)n1-c1ccccc1	95.5	94.8	103	97.3	99.3	87.3	98	98.8	99.8	89.3
CC(C)Oc1ccc(-c2nn([C@@H](C)c3oc4ccc(F)cc4c(=O)c3-c3cccc(F)c3)c3ncnc(N)c23)cc1F [UMBRALISIB]	96.9	89.3	100	103	103	96.7	99.5	98.8	90.3	88.3
